The values below come from patent publication US20260015350A1, “AZAQUINAZOLINE PAN-KRAS INHIBITORS” (Mirati Therapeutics, Inc., priority 2022, published 2026).

Assay [1] deals with T1, KRas^G12V (Homo sapiens, UniProt P01116, G12V).
T1 construct: Biotinylated KRas (corresponding to amino acids 1-169, produced at Accelegan Inc.); biotin (biotinylated); purchased Accelegan Inc
The assay can be described thus: KRas binding assay (TR-FRET tracer displacement), KRas G12V.

For assay [2], the system named is KRas-mediated phosphorylation of ERK in A549 cells. The assay can be described thus: Inhibition of KRas-mediated phosphorylation of ERK (Cisbio HTRF pERK), A549 cells. The format is cell-based. Conditions: for IC50: HTRF pERK. The method in brief: (§1)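 Compound treatment lasts 3 hrs on 6,000 seeded cells, testing 10 doses from a 10 uM top concentration in 3-fold decrements at 0.8% final DMSO. Trametinib at 0.2 uM defines the Min signal. Detection is HTRF on cold-lysed cell extracts.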

The subject of assay [3] is KRas-mediated phosphorylation of ERK in HCT116 cells. The experiment in a line: Inhibition of KRas-mediated phosphorylation of ERK (Cisbio HTRF pERK), HCT116 cells. The format is cell-based. Particulars: for IC50: HCT-116, HTRF pERK. The method in brief: as §1
For assay [4], the target named is T2, KRas^G12R (Homo sapiens, UniProt P01116, G12R).
T2 construct: Biotinylated KRas (corresponding to amino acids 1-169, produced at Accelegan Inc.); biotin (biotinylated); purchased Accelegan Inc
T2 sequence (P01116 1-169 isoform P01116-2 G12R): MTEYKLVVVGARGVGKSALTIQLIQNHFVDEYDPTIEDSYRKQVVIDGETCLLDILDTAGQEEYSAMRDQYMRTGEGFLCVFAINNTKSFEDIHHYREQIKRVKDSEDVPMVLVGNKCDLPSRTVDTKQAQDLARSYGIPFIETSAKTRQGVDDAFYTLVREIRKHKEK
The experiment in a line: KRas binding assay (TR-FRET tracer displacement), KRas G12R.

Assay [5] has as its system KRas-mediated phosphorylation of ERK in AsPC-1 cells. The assay can be described thus: Inhibition of KRas-mediated phosphorylation of ERK (Cisbio HTRF pERK), AsPC-1 cells. The format is cell-based. Conditions: for IC50: HTRF pERK. The method in brief: (§2)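 H358, H727, H460 and AsPC-1 cells seeded at 6,000/well, treated 3 hrs with 10-dose 3-fold dilutions from 10 uM (0.8% DMSO); 0.2 uM trametinib as min control. Lysed 40 min at 4° C; lysate incubated 2 hrs at room temperature with d2/cryptate antibodies, HTRF read.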

For assay [6], the system named is KRas-mediated phosphorylation of ERK in H460 cells. The assay can be described thus: Inhibition of KRas-mediated phosphorylation of ERK (Cisbio HTRF pERK), H460 cells. It counts as cell-based. Conditions: for IC50: NCI-H460, HTRF pERK. In outline:
as §2

Assay [7] concerns the target T3, KRas^G12D (Homo sapiens, UniProt P01116, G12D).
T3 construct: Biotinylated KRas (corresponding to amino acids 1-169, produced at Accelegan Inc.); biotin (biotinylated); purchased Accelegan Inc
The assay can be described thus: KRas binding assay (TR-FRET tracer displacement), KRas G12D.

The subject of assay [8] is KRas-mediated phosphorylation of ERK in H727 cells. The experiment in a line: Inhibition of KRas-mediated phosphorylation of ERK (Cisbio HTRF pERK), H727 cells. It counts as cell-based. Particulars: for IC50: HTRF pERK. In outline:
as §2

The test system of assay [9] is KRas-mediated phosphorylation of ERK in MKN1 cells. The assay can be described thus: Inhibition of KRas-mediated phosphorylation of ERK (Cisbio HTRF pERK), MKN1 cells. The format is cell-based. Particulars: Homo sapiens, MKN-1. In outline:
(§3)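 Overnight culture at 37° C./5% CO2 in RPMI containing 10% FBS, seeded 6,000 cells per well, preceded the assay. A covered 4-hour incubation at room temperature followed, then HTRF signal for phosphorylated ERK was measured.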

Assay [10] relates to KRas-mediated phosphorylation of ERK in H358 cells. The assay can be described thus: Inhibition of KRas-mediated phosphorylation of ERK (Cisbio HTRF pERK), H358 cells. The format is cell-based. Particulars: for IC50: NCI-H358, HTRF pERK. In outline: as §2
Assay [11] has as its system KRas-mediated phosphorylation of ERK in PSN1 cells. The assay can be described thus: Inhibition of KRas-mediated phosphorylation of ERK (Cisbio HTRF pERK), PSN1 cells. Particulars: Homo sapiens. It counts as cell-based. The method in brief: as §3
Setting [12] is: Homo sapiens, ASPC1, AsPC-1 cells.
Setting [13] is: Homo sapiens, NCI-H727, H727 cells.
[14] abbreviates: single point, 100 nM compound, 3 hrs, 0.1 µM.

T3 sequence (P01116 1-169 isoform P01116-2 G12D): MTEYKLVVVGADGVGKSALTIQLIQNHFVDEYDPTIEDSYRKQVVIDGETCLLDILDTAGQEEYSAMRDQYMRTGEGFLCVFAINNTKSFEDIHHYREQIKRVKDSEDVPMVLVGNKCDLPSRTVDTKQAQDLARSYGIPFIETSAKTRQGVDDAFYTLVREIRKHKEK
T1 sequence (P01116 1-169 isoform P01116-2 G12V): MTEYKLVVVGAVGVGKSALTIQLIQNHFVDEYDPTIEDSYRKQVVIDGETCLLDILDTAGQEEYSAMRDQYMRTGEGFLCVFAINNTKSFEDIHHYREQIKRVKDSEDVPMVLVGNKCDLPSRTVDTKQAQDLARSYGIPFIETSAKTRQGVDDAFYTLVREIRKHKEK

On to `O=C1CC2(CCCN(c3nc(OC[C@@]45CCCN4C[C@H](F)C5)nc4c(F)c(-c5cc(O)cc6ccc(F)c(Cl)c56)ncc34)C2)C(=O)N1` (stereo partly drawn) [Example 774, 7-(7-(8-chloro-7-fluoro-3-hydroxynaphthalen-1-yl)-8-fluoro-2-(((2R,7aS)-2-fluorohexahydro-1H-pyrrolizin-7a-yl)methoxy)pyrido[4,3-d]pyrimidin-4-yl)-2,7-diazaspiro[4.5]decane-1,3-dione], for which the half-maximal inhibitory concentration (IC50) in [1] was under 2 nM; in assay [2] (Homo sapiens) it was 924 nM; in assay [3] (Homo sapiens), 506 nM; in assay [4] it was under 2 nM; in assay [5] (setting [12]), 852 nM; in [6] (Homo sapiens) it was 434 nM. In addition, the half-inhibitory concentration (IC50) in [7] was found to be 2 nM; in assay [8] (setting [13]), 138 nM; in assay [9], 123 nM; in [10] (Homo sapiens) it was 121 nM; in [11], 2340 nM.
As to `CCc1c(F)ccc2cc(O)cc(-c3ncc4c(N5CC6CCC(C(=O)NC)(C6)C5)nc(OC[C@@]56CCCN5C[C@H](F)C6)nc4c3F)c12` (stereo partly drawn) [Example 889, 3-(7-(8-ethyl-7-fluoro-3-hydroxynaphthalen-1-yl)-8-fluoro-2-(((2R,7aS)-2-fluorotetrahydro-1H-pyrrolizin-7a(5H)-yl)methoxy)pyrido[4,3-d]pyrimidin-4-yl)-N-methyl-3-azabicyclo[3.2.1]octane-1-carboxamide], the concentration for half-maximal inhibition (IC50) was under 2 nM in [1]; 365 nM in assay [2] (Homo sapiens); 188 nM in [3] (Homo sapiens); 5 nM in assay [4]; 600 nM in [5] (setting [12]); 134 nM in assay [6] (Homo sapiens). In addition, the IC50 in assay [7] is 4 nM; in [8] (setting [13]), 129 nM; in assay [9], 55 nM; in [10] (Homo sapiens), 24 nM; in [11] it was over 10000 nM.
Turning to `CCc1c(F)ccc2cc(O)cc(-c3ncc4c(N5C[C@H]6C[C@@H](C5)C(O)C6O)nc(OC[C@@]56CCCN5C[C@H](F)C6)nc4c3F)c12` (single isomer, unassigned) [Example 570], the IC50 in assay [1] is 3 nM; in assay [2] (Homo sapiens), 542 nM; in assay [4], under 2 nM; in [5] (setting [12]), 1770 nM; in assay [7], 12 nM; in [8] (setting [13]) it was 280 nM. Besides, the concentration for half-maximal inhibition (IC50) in [9] is 56 nM; in [11], over 10000 nM. Moreover, the inhibition at 0.1 µM in assay [2] (Homo sapiens, A549, 3 h, single point, 100 nM compound, 3 hrs) was found to be 26%; in assay [3] (Homo sapiens, HCT-116, 3 h, single point, 100 nM compound, 3 hrs), 26%; in [6] (Homo sapiens, NCI-H460, 3 h, single point, 100 nM compound, 3 hrs), 38%; in assay [10] (Homo sapiens, NCI-H358, 3 h, single point, 100 nM compound, 3 hrs) it was 69%.
Take `CCc1c(F)ccc2cc(O)cc(-c3ncc4c(N5CC6CCC(C5)C65OCCO5)nc(OC[C@@]56CCCN5C[C@H](F)C6)nc4c3F)c12` [Example 883, 5-ethyl-6-fluoro-4-(8-fluoro-2-(((2R,7aS)-2-fluorotetrahydro-1H-pyrrolizin-7a(5H)-yl)methoxy)-4-(3-azaspiro[bicyclo[3.2.1]octane-8,2′-[1,3]dioxolan]-3-yl)pyrido[4,3-d]pyrimidin-7-yl)naphthalen-2-ol]: the half-maximal inhibitory concentration (IC50) in [1] amounted to 7 nM; in [2] (Homo sapiens), 822 nM; in [3] (Homo sapiens), 772 nM; in assay [4], 12 nM; in assay [5] (setting [12]), 1170 nM; in assay [6] (Homo sapiens), 211 nM. Besides, the IC50 is 53 nM in assay [7]; 252 nM in [8] (setting [13]); 94 nM in assay [9]; 95 nM in assay [10] (Homo sapiens); over 10000 nM in [11].
As to `CCc1c(F)ccc2cc(O)cc(-c3ncc4c(N5CC6CCC(C5)C6C#N)nc(OC[C@@]56CCCN5C[C@H](F)C6)nc4c3F)c12` (single isomer, unassigned) [Example 561], the IC50 is under 2 nM in [1]; 4 nM in assay [2] (Homo sapiens); 24 nM in assay [3] (Homo sapiens); under 2 nM in [4]; 80 nM in assay [5] (AsPC-1 cells); 5 nM in assay [6] (Homo sapiens). Further, the IC50 in assay [7] is 7 nM; in assay [8] (H727 cells) it was 13 nM; in assay [9] it was 1 nM; in assay [10] (Homo sapiens), 3 nM; in [11], over 10000 nM. Besides, in [2] (setting [14]), the “Inhibition (HTRF % at 100 nM) of KRas-mediated Phosphorylation of ERK, A549” value came to 103%. Also, in [3] (setting [14]), the “Inhibition (HTRF % at 100 nM) of KRas-mediated Phosphorylation of ERK, HCT116” value is 63%. The “Inhibition (HTRF % at 100 nM) of KRas-mediated Phosphorylation of ERK, AsPC-1” value in assay [5] (single point, 100 nM compound, 3 hrs, AsPC-1 cells, 0.1 µM) is 30%. For the same compound, in [6] (setting [14]), the “Inhibition (HTRF % at 100 nM) of KRas-mediated Phosphorylation of ERK, H460” value was determined as 99%. Besides, in [8] (single point, 100 nM compound, 3 hrs, H727 cells, 0.1 µM), the “Inhibition (HTRF % at 100 nM) of KRas-mediated Phosphorylation of ERK, H727” value is given as 74%. Besides, the “Inhibition (HTRF % at 100 nM) of KRas-mediated Phosphorylation of ERK, H358” value in assay [10] (setting [14]) is on record as 99%.
Take `CCc1c(F)ccc2cc(O)cc(-c3ncc4c(N5CCC[C@@](C)(O)C5)nc(OC[C@@]56CCCN5[C@H](COCC5CCC5)CC6)nc4c3F)c12` [Example 852, (R)-1-(2-(((3S,7aS)-3-((cyclobutylmethoxy)methyl)tetrahydro-1H-pyrrolizin-7a(5H)-yl)methoxy)-7-(8-ethyl-7-fluoro-3-hydroxynaphthalen-1-yl)-8-fluoropyrido[4,3-d]pyrimidin-4-yl)-3-methylpiperidin-3-ol]: the concentration for half-maximal inhibition (IC50) in [1] was under 2 nM; in assay [2] (Homo sapiens), 68 nM; in [3] (Homo sapiens), 38 nM; in assay [4], under 2 nM; in assay [5] (setting [12]), 35 nM; in assay [6] (Homo sapiens), 42 nM. Also, the IC50 in assay [7] is under 2 nM; in assay [8] (setting [13]) it was 109 nM; in assay [9], 5 nM; in assay [10] (Homo sapiens), 12 nM; in assay [11] it was 923 nM.
As to `CCc1c(F)ccc2cc(O)cc(-c3ncc4c(N5CC6CCC(C(=O)N(C)C)(C6)C5)nc(OC[C@@]56CCCN5C[C@H](F)C6)nc4c3F)c12` (stereo partly drawn) [Example 824, 3-(7-(8-ethyl-7-fluoro-3-hydroxynaphthalen-1-yl)-8-fluoro-2-(((2R,7aS)-2-fluorotetrahydro-1H-pyrrolizin-7a(5H)-yl)methoxy)pyrido[4,3-d]pyrimidin-4-yl)-N,N-dimethyl-3-azabicyclo[3.2.1]octane-1-carboxamide], the IC50 in assay [1] was determined as 4 nM; in assay [2] (Homo sapiens) it was 143 nM; in assay [3] (Homo sapiens), 502 nM; in assay [4] it was 8 nM; in assay [5] (setting [12]), 165 nM; in [6] (Homo sapiens), 136 nM. For the same compound, the IC50 in assay [7] is 11 nM; in [8] (setting [13]) it was 174 nM; in assay [9], 167 nM; in assay [10] (Homo sapiens), 69 nM; in [11], over 10000 nM.
Turning to `CCc1c(F)ccc2cc(O)cc(-c3ncc4c(N5CC6CCC(C5)C6CCO)nc(OC[C@@]56CCCN5C[C@H](F)C6)nc4c3F)c12` (stereo partly drawn) [Example 847, 5-ethyl-6-fluoro-4-(8-fluoro-2-(((2R,7aS)-2-fluorotetrahydro-1H-pyrrolizin-7a(5H)-yl)methoxy)-4-((1R,5S,8S)-8-(2-hydroxyethyl)-3-azabicyclo[3.2.1]octan-3-yl)pyrido[4,3-d]pyrimidin-7-yl)naphthalen-2-ol], the half-maximal inhibitory concentration (IC50) in [1] is 20 nM; in assay [2] (Homo sapiens), 1820 nM; in assay [3] (Homo sapiens), 1430 nM; in assay [4], 39 nM; in assay [5] (setting [12]) it was 4520 nM; in assay [6] (Homo sapiens), 582 nM. Further, the IC50 in assay [7] is 140 nM; in assay [8] (setting [13]), 1640 nM; in [9] it was 270 nM; in assay [10] (Homo sapiens), 494 nM; in [11] it was over 10000 nM.
For the compound `CCCCN(CCCC)C(=O)OC[C@@H]1CC[C@@]2(COc3nc(N4CCC[C@@](C)(O)C4)c4cnc(-c5cc(O)cc6ccc(F)c(CC)c56)c(F)c4n3)CCCN12` [Example 873, ((3S,7aR)-7a-(((7-(8-ethyl-7-fluoro-3-hydroxynaphthalen-1-yl)-8-fluoro-4-((R)-3-hydroxy-3-methylpiperidin-1-yl)pyrido[4,3-d]pyrimidin-2-yl)oxy)methyl)hexahydro-1H-pyrrolizin-3-yl)methyl dibutylcarbamate], the IC50 came to 7 nM in [1]; 135 nM in assay [2] (Homo sapiens); 325 nM in assay [3] (Homo sapiens); 12 nM in assay [4]; 93 nM in assay [5] (setting [12]); 194 nM in [6] (Homo sapiens). Besides, the IC50 in [7] was 7 nM; in assay [8] (setting [13]) it was 408 nM; in assay [9], 198 nM; in [10] (Homo sapiens), 149 nM; in assay [11], over 10000 nM.
